Columns and labels:
Assay in all cases: relative viability (nuclei count vs DMSO), 5 days (fraction); higher = more cells survive
NCI-H2228 = tested on: NCI-H2228
Procedure, shortened: (§1)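 Lung cancer cell lines in 1536-well plates were dosed by pin tool the day after seeding, either with one drug alone or with a fixed anchor-drug dose plus five library-drug doses (not always all listed) in √10 steps. After 5 days, cells were fixed and their nuclei stained in one step (final 0.05% Triton X-100, 1% formaldehyde, 1 ug/ml Hoechst), then counted on 4× images. Relative viability is the nuclei count in treated wells divided by that in vehicle wells. Values are medians of duplicate plates.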

NCI-H1993 = tested on: NCI-H1993
Procedure, shortened: as §1

PC-3 [JPC-3] = tested on: PC-3 [JPC-3]
Procedure, shortened: as §1

HOP-62 = tested on: HOP-62
Procedure, shortened: as §1

LU99A = tested on: LU99A
Procedure, shortened: as §1

COR-L23 = tested on: COR-L23
Procedure, shortened: as §1

NCI-H596 = tested on: NCI-H596
Procedure, shortened: as §1

HARA = tested on: HARA
Procedure, shortened: as §1

NCI-H1792 = tested on: NCI-H1792
Procedure, shortened: as §1

A-427 = tested on: A-427
Procedure, shortened: as §1

NCI-H2009 = tested on: NCI-H2009
Procedure, shortened: as §1

NCI-H727 = tested on: NCI-H727
Procedure, shortened: as §1

SK-MES-1 = tested on: SK-MES-1
Procedure, shortened: as §1

NCI-H2170 = tested on: NCI-H2170
Procedure, shortened: as §1

SW 1573 = tested on: SW 1573
Procedure, shortened: as §1

NCI-H1944 = tested on: NCI-H1944
Procedure, shortened: as §1

NCI-H3122 = tested on: NCI-H3122
Procedure, shortened: as §1

EMC-BAC-2 = tested on: EMC-BAC-2
Procedure, shortened: as §1

NCI-H1793 = tested on: NCI-H1793
Procedure, shortened: as §1

LK-2 = tested on: LK-2
Procedure, shortened: as §1

LXF-289 = tested on: LXF-289
Procedure, shortened: as §1

SK-LU-1 = tested on: SK-LU-1
Procedure, shortened: as §1

`Clc1ccc(Nc2nnc(Cc3ccncc3)c3ccccc23)cc1` [Vatalanib] + CC1(C)CCC(c2ccc(Cl)cc2)=C(CN2CCN(c3ccc(C(=O)NS(=O)(=O)c4ccc(N[C@H](CCN5CCOCC5)CSc5ccccc5)c(S(=O)(=O)C(F)(F)F)c4)cc3)CC2)C1 [Navitoclax] (partner 0.5 µM) gave a relative viability (NCI-H2228; first compound 0.04 µM) of 0.845, a relative viability (NCI-H2228; first compound 0.1265 µM) of 0.92 and a relative viability (NCI-H2228; first compound 0.4 µM) of 1.1. For the same compound, the relative viability (NCI-H2228; first compound 1.265 µM) was 0.755, the relative viability (NCI-H2228; first compound 4 µM) was 0.83 and the relative viability (NCI-H1993; first compound 0.04 µM) was 0.894. For the same compound, the relative viability (NCI-H1993; first compound 0.1265 µM) was 0.935, the relative viability (NCI-H1993; first compound 0.4 µM) was 0.826 and the relative viability (NCI-H1993; first compound 1.265 µM) was 0.789. For the same compound, the relative viability (NCI-H1993; first compound 4 µM) was 0.63, the relative viability (PC-3 [JPC-3]; first compound 0.04 µM) was 0.725 and the relative viability (PC-3 [JPC-3]; first compound 0.1265 µM) was 0.832. The relative viability (PC-3 [JPC-3]; first compound 0.4 µM) was 0.848, the relative viability (PC-3 [JPC-3]; first compound 1.265 µM) was 0.739 and the relative viability (PC-3 [JPC-3]; first compound 4 µM) was 0.757. The relative viability (HOP-62; first compound 0.04 µM) was 1.05, the relative viability (HOP-62; first compound 0.1265 µM) was 0.958 and the relative viability (HOP-62; first compound 0.4 µM) was 1.07. It also gave a relative viability (HOP-62; first compound 1.265 µM) of 0.949, a relative viability (HOP-62; first compound 4 µM) of 1.07 and a relative viability (LU99A; first compound 0.04 µM) of 0.763. For the same compound, the relative viability (LU99A; first compound 0.1265 µM) was 0.719, the relative viability (LU99A; first compound 0.4 µM) was 1.11 and the relative viability (LU99A; first compound 1.265 µM) was 0.855. It also gave a relative viability (LU99A; first compound 4 µM) of 0.859, a relative viability (COR-L23; first compound 0.04 µM) of 1.1 and a relative viability (COR-L23; first compound 0.1265 µM) of 0.972. The relative viability (COR-L23; first compound 0.4 µM) was 1.24, the relative viability (COR-L23; first compound 1.265 µM) was 0.778 and the relative viability (COR-L23; first compound 4 µM) was 1.01. For the same compound, the relative viability (NCI-H596; first compound 0.04 µM) was 0.972, the relative viability (NCI-H596; first compound 0.1265 µM) was 1 and the relative viability (NCI-H596; first compound 0.4 µM) was 1.08. For the same compound, the relative viability (NCI-H596; first compound 1.265 µM) was 0.767, the relative viability (NCI-H596; first compound 4 µM) was 0.986 and the relative viability (HARA; first compound 0.04 µM) was 1.08. The relative viability (HARA; first compound 0.1265 µM) was 1.03, the relative viability (HARA; first compound 0.4 µM) was 1.18 and the relative viability (HARA; first compound 1.265 µM) was 1.11. It also gave a relative viability (HARA; first compound 4 µM) of 1.13, a relative viability (NCI-H1792; first compound 0.04 µM) of 0.648 and a relative viability (NCI-H1792; first compound 0.1265 µM) of 0.611. The relative viability (NCI-H1792; first compound 0.4 µM) was 0.688, the relative viability (NCI-H1792; first compound 1.265 µM) was 0.678 and the relative viability (NCI-H1792; first compound 4 µM) was 0.624. For the same compound, the relative viability (A-427; first compound 0.04 µM) was 0.998, the relative viability (A-427; first compound 0.1265 µM) was 0.92 and the relative viability (A-427; first compound 0.4 µM) was 0.867. It also gave a relative viability (A-427; first compound 1.265 µM) of 0.794, a relative viability (A-427; first compound 4 µM) of 0.98 and a relative viability (NCI-H2009; first compound 0.04 µM) of 1.18. The relative viability (NCI-H2009; first compound 0.1265 µM) was 1.09, the relative viability (NCI-H2009; first compound 0.4 µM) was 1.24 and the relative viability (NCI-H2009; first compound 1.265 µM) was 1.12. It also gave a relative viability (NCI-H2009; first compound 4 µM) of 1.13, a relative viability (NCI-H727; first compound 0.04 µM) of 0.428 and a relative viability (NCI-H727; first compound 0.1265 µM) of 0.403. The relative viability (NCI-H727; first compound 0.4 µM) was 0.516, the relative viability (NCI-H727; first compound 1.265 µM) was 0.407 and the relative viability (NCI-H727; first compound 4 µM) was 0.46. The relative viability (SK-MES-1; first compound 0.04 µM) was 1.2, the relative viability (SK-MES-1; first compound 0.1265 µM) was 1.21 and the relative viability (SK-MES-1; first compound 0.4 µM) was 1.28. The relative viability (SK-MES-1; first compound 1.265 µM) was 1.01, the relative viability (SK-MES-1; first compound 4 µM) was 1.15 and the relative viability (NCI-H2170; first compound 0.04 µM) was 0.584. The relative viability (NCI-H2170; first compound 0.1265 µM) was 0.674, the relative viability (NCI-H2170; first compound 0.4 µM) was 0.621 and the relative viability (NCI-H2170; first compound 1.265 µM) was 0.51. For the same compound, the relative viability (NCI-H2170; first compound 4 µM) was 0.589, the relative viability (SW 1573; first compound 0.04 µM) was 0.938 and the relative viability (SW 1573; first compound 0.1265 µM) was 1.03. The relative viability (SW 1573; first compound 0.4 µM) was 1.02, the relative viability (SW 1573; first compound 1.265 µM) was 0.872 and the relative viability (SW 1573; first compound 4 µM) was 0.969. The relative viability (NCI-H1944; first compound 0.04 µM) was 1.01, the relative viability (NCI-H1944; first compound 0.1265 µM) was 1.02 and the relative viability (NCI-H1944; first compound 0.4 µM) was 1.06. For the same compound, the relative viability (NCI-H1944; first compound 1.265 µM) was 1.08, the relative viability (NCI-H1944; first compound 4 µM) was 1.06 and the relative viability (NCI-H3122; first compound 0.04 µM) was 1.03. It also gave a relative viability (NCI-H3122; first compound 0.1265 µM) of 1.02, a relative viability (NCI-H3122; first compound 0.4 µM) of 1 and a relative viability (NCI-H3122; first compound 1.265 µM) of 1.06. It also gave a relative viability (NCI-H3122; first compound 4 µM) of 1.02, a relative viability (EMC-BAC-2; first compound 0.04 µM) of 1.18 and a relative viability (EMC-BAC-2; first compound 0.1265 µM) of 1.12. It also gave a relative viability (EMC-BAC-2; first compound 0.4 µM) of 1.23, a relative viability (EMC-BAC-2; first compound 1.265 µM) of 1.15 and a relative viability (EMC-BAC-2; first compound 4 µM) of 1.14. The relative viability (NCI-H1793; first compound 0.04 µM) was 0.452, the relative viability (NCI-H1793; first compound 0.1265 µM) was 0.435 and the relative viability (NCI-H1793; first compound 0.4 µM) was 0.498. For the same compound, the relative viability (NCI-H1793; first compound 1.265 µM) was 0.318, the relative viability (NCI-H1793; first compound 4 µM) was 0.502 and the relative viability (LK-2; first compound 0.04 µM) was 0.883. The relative viability (LK-2; first compound 0.1265 µM) was 0.824, the relative viability (LK-2; first compound 1.265 µM) was 0.955 and the relative viability (LK-2; first compound 4 µM) was 0.807. It also gave a relative viability (LXF-289; first compound 0.04 µM) of 0.971, a relative viability (LXF-289; first compound 0.1265 µM) of 0.901 and a relative viability (LXF-289; first compound 0.4 µM) of 0.989. It also gave a relative viability (LXF-289; first compound 1.265 µM) of 0.852, a relative viability (LXF-289; first compound 4 µM) of 0.899 and a relative viability (SK-LU-1; first compound 0.04 µM) of 0.755. It also gave a relative viability (SK-LU-1; first compound 0.1265 µM) of 0.594, a relative viability (SK-LU-1; first compound 0.4 µM) of 0.742 and a relative viability (SK-LU-1; first compound 1.265 µM) of 0.832. It also gave a relative viability (SK-LU-1; first compound 4 µM) of 0.82.
